Target: T1, PI3Kδ (Homo sapiens, UniProt O00329)
T1 construct: Full length p110 subunits of PI3k α, β and δ, N-terminally labeled with polyHis tag; polyHis (N); made in house; host or cells: Sf9 insect cells (baculovirus)
Experiment: PI3Kδ Alphascreen assay
Format: biochemical
Conditions: not given
Experimental: Full length p110 subunits of PI3k α, β and δ, N-terminally labeled with polyHis tag, were coexpressed with p85 with Baculo virus expression vectors in sf9 insect cells. P110/p85 heterodimers were purified by sequential Ni-NTA, Q-HP, Superdex-100 chromatography. Purified α, β and δ isozymes were stored at −20° C. in 20 mM Tris, pH 8, 0.2M NaCl, 50% glycerol, 5 mM DTT, 2 mM Na cholate. […] The γ isozyme was purified by sequential Ni-NTA, Superdex-200, Q-HP chromatography. The γ isozyme was stored frozen at −80° C. in NaH2PO4, pH 8, 0.2M NaCl, 1% ethylene glycol, 2 mM β-mercaptoethanol.
A PI3K Alphascreen® assay (PerkinElmer, Waltham, Mass.) was used to measure the activity of a panel of four phosphoinositide 3-kinases: PI3Kα, PI3Kβ, PI3Kγ, and PI3Kδ. Enzyme reaction buffer was prepared using sterile water (Baxter, Deerfield, Ill.) and 50 mM Tris HCl pH 7, 14 mM MgCl2, 2 mM sodium cholate, and 100 mM NaCl. 2 mM DTT was added fresh the day of the experiment. The Alphascreen buffer was made using sterile water and 10 mM Tris HCl pH 7.5, 150 mM NaCl, 0.10% Tween 20, and 30 mM EDTA. 1 mM DTT was added fresh the day of the experiment. Compound source plates used for this assay were 384-well Greiner clear polypropylene plates containing test compounds at 5 mM and diluted 1:2 over 22 concentrations. Columns 23 and 24 contained only DMSO as these wells comprised the positive and negative controls, respectively. Source plates were replicated by transferring 0.5 uL per well into 384-well Optiplates (PerkinElmer, Waltham, Mass.).
Each PI3K isoform was diluted in enzyme reaction buffer to 2× working stocks. […] PI(4,5)P2 (Echelon Biosciences, Salt Lake City, Utah) was diluted to 10 μM and ATP was diluted to 20 μM. This 2× stock was used in the assays for PI3Kα and PI3Kβ. For assay of PI3Kγ and PI3Kδ, PI(4,5)P2 was diluted to 10 μM and ATP was diluted to 8 μM to prepare a similar 2× working stock. Alphascreen reaction solutions were made using beads from the anti-GST Alphascreen kit (PerkinElmer, Waltham, Mass.). Two 4× working stocks of the Alphascreen reagents were made in Alphascreen reaction buffer. In one stock, biotinylated-IP4 (Echelon Biosciences, Salt Lake City, Utah) was diluted to 40 nM and streptavidin-donor beads were diluted to 80 μg/mL. In the second stock, PIP3-binding protein (Echelon Biosciences, Salt Lake City, Utah) was diluted to 40 nM and anti-GST-acceptor beads were diluted to 80 μg/mL.
10 μL/well of the appropriate substrate 2× stock (containing 20 μM ATP for the PI3Kα and β assays and containing 8 μM ATP for the PI3Kγ and δ assays) was then added to Columns 1-24 of all plates. Plates were then incubated at room temperature for 20 minutes. In the dark, 10 μL/well of the donor bead solution was added to columns 1-24 of the plates to quench the enzyme reaction. The plates were incubated at room temperature for 30 minutes. Still in the dark, 10 μL/well of the acceptor bead solution was added to columns 1-24 of the plates. The plates were then incubated in the dark for 1.5 hours. The plates were read on an Envision multimode Plate Reader (PerkinElmer, Waltham, Mass.) using a 680 nm excitation filter and a 520-620 nm emission filter.

T1 sequence (O00329 whole entry): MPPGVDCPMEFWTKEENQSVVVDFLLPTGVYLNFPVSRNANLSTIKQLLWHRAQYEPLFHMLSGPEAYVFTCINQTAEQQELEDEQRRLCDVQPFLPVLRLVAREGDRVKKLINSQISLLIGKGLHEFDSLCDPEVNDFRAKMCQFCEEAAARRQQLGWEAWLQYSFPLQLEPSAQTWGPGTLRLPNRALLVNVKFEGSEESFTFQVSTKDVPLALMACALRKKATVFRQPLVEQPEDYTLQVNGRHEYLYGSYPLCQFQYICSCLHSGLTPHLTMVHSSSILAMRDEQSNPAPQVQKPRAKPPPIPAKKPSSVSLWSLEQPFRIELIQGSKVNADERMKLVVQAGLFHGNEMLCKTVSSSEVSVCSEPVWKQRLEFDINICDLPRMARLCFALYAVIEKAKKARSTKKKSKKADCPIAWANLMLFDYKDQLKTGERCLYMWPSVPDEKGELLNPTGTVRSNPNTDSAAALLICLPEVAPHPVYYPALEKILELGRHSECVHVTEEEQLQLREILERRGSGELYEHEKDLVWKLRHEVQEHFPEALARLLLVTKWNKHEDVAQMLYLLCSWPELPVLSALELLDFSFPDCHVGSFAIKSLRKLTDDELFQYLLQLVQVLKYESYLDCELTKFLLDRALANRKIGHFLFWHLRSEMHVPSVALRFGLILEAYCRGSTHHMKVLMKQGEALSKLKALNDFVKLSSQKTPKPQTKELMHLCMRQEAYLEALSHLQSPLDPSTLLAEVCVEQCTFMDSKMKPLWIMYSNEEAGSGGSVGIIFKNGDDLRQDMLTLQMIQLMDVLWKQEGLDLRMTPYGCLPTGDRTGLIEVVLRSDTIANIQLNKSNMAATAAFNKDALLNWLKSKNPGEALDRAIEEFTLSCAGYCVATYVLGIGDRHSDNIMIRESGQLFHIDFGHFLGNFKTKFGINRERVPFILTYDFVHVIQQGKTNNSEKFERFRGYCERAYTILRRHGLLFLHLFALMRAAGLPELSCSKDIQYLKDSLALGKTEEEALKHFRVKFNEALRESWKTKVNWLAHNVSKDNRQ
T1 sequence (P27986 whole entry partner): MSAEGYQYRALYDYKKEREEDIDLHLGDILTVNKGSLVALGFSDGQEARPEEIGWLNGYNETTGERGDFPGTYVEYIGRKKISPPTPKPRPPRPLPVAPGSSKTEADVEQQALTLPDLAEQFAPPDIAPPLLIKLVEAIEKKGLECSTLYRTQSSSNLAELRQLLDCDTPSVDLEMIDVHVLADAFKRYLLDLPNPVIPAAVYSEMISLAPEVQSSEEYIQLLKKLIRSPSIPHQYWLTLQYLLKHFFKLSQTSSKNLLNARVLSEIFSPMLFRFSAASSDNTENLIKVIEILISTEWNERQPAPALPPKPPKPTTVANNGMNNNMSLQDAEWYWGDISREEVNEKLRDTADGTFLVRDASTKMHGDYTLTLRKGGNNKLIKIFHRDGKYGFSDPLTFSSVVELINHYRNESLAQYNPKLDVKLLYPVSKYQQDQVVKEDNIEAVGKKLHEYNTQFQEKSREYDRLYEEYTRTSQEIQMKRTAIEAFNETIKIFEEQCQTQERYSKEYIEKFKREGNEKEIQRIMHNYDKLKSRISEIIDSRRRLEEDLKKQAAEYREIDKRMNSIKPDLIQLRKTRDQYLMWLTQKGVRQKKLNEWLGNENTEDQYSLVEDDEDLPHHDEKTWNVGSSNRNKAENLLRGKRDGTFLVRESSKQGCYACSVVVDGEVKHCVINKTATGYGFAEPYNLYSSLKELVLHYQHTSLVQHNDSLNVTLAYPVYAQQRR

SMILES	Ki [nM]
CS(=O)(=O)c1ccccc1-c1cc2cccc(F)c2nc1CNc1ncnc(N)c1C#N [4-Amino-6-((8-fluoro-3-(2-(methylsulfonyl)phenyl)quinolin-2-yl)methylamino)-pyrimidine-5-carbonitrile]	30.7
N#Cc1c(N)ncnc1NCc1nc2c(F)cccc2cc1-c1ccccc1 [4-Amino-6-((8-fluoro-3-phenylquinolin-2-yl)methylamino)pyrimidine-5-carbonitrile]	12.3
CC(Nc1ncnc(N)c1C(N)=O)c1nc2ccc(F)cc2c(C(=O)O)c1-c1ccccc1 (centres unmarked) [2-(1-(6-amino-5-carbamoylpyrimidin-4-ylamino)ethyl)-6-fluoro-3-phenylquinoline-4-carboxylic acid]	7.16
C[C@H](Nc1ncnc(N)c1C#N)c1nc2ccc(F)cc2c(C(=O)NC2CC2)c1-c1ccccn1 [(S)-2-(1-(6-Amino-5-cyanopyrimidin-4-ylamino)ethyl)-N-cyclopropyl-6-fluoro-3-(pyridin-2-yl)quinoline-4-carboxamide]	1.64
C[C@H](Nc1ncnc(N)c1C#N)c1nc2ccc(F)cc2c(C(=O)NCCO)c1-c1ccccn1 [(S)-2-(1-(6-Amino-5-cyanopyrimidin-4-ylamino)ethyl)-6-fluoro-N-(2-hydroxyethyl)-3-(pyridin-2-yl)quinoline-4-carboxamide]	7.57
C[C@@H](Nc1ncnc(N)c1C#N)c1nc2cccc(Cl)c2cc1-c1ccccn1 [4-amino-6-(((1R)-1-(5-chloro-3-(2-pyridinyl)-2-quinolinyl)ethyl)amino)-5-pyrimidinecarbonitrile]	57.9
CC(Nc1ncnc(N)c1C#N)c1nc2ccc(F)cc2c(C(=O)N2CC[C@@H](O)C2)c1-c1ccccc1 (stereo partly drawn) [4-Amino-6-((1-(6-fluoro-4-(((3R)-3-hydroxy-1-pyrrolidinyl)carbonyl)-3-phenyl-2-quinolinyl)ethyl)amino)-5-pyrimidinecarbonitrile]	25.6
CC(Nc1ncnc(N)c1C#N)c1nc2ccc(F)cc2c(C(=O)N2CCOCC2)c1-c1ccccc1 (centres unmarked) [4-Amino-6-((-1-(6-fluoro-4-(4-morpholinylcarbonyl)-3-phenyl-2-quinolinyl)-ethyl)amino)-5-pyrimidinecarbonitrile]	2.88
CC(Nc1cc(N)ncn1)c1nc2ccc(F)cc2cc1-c1ccccn1 (centres unmarked) [N4-(1-(6-Fluoro-3-(pyridin-2-yl)quinolin-2-yl)ethyl)pyrimidine-4,6-diamine]	3730
C[C@@H](Nc1ncnc(N)c1C#N)c1nc2ccc(F)cc2c(C(=O)N(C)C)c1-c1ccccn1 (stereo in doubt) [2-(1-((6-Amino-5-cyano-4-pyrimidinyl)amino)ethyl)-6-fluoro-N,N-dimethyl-3-(2-pyridinyl)-4-quinolinecarboxamide]	7.77
N#Cc1c(N)ncnc1NCc1nc2cccc(F)c2cc1-c1ccccn1 [4-Amino-6-((5-fluoro-3-(pyridin-2-yl)quinolin-2-yl)methylamino)pyrimidine-5-carbonitrile]	137
CC(Nc1ncnc2[nH]cnc12)c1nc2ccc(F)cc2cc1-c1ccccn1 (racemic) [N-(1-(6-Fluoro-3-(pyridin-2-yl)quinolin-2-yl)ethyl)-9H-purin-6-amine]	21.3
CC(Nc1ncnc(N)c1C#N)c1nc2ccc(F)cc2c([S@@+]([O-])CCO)c1-c1ccccc1 (stereo partly drawn) [4-amino-6-(1-(6-fluoro-4-((S)-2-hydroxyethylsulfinyl)-3-phenylquinolin-2-yl)ethylamino)pyrimidine-5-carbonitrile]	1.8
COC1CN(C(=O)c2c(-c3ccccc3)c(C(C)Nc3ncnc(N)c3C#N)nc3ccc(F)cc23)C1 (centres unmarked) [4-Amino-6-((1-(6-fluoro-4-((3-methoxy-1-azetidinyl)carbonyl)-3-phenyl-2-quinolinyl)ethyl)amino)-5-pyrimidinecarbonitrile]	1.75
C[C@H](Nc1ncnc(N)c1C#N)c1nc2cccc(C#N)c2cc1-c1ccccn1 [2-((1S)-1-((6-Amino-5-cyano-4-pyrimidinyl)amino)ethyl)-3-(2-pyridinyl)-5-quinolinecarbonitrile]	14.1
CC(Nc1ncnc(N)c1C#N)c1nc2ccc(F)cc2c(C(=O)O)c1-c1ccccn1 (centres unmarked) [2-1-((6-Amino-5-cyano-4-pyrimidinyl)amino)ethyl)-6-fluoro-3-(2-pyridinyl)-4-quinolinecarboxylic acid]	119
C[C@@H](Nc1ccnc(N)n1)c1nc2ccc(F)cc2cc1-c1ccccn1 [N~4~-((1R)-1-(6-fluoro-3-(2-pyridinyl)-2-quinolinyl)ethyl)-2,4-pyrimidinediamine]	5520

Stronger by Ki, values ahead:

Ki [nM]	SMILES
1.4	CC(Nc1ncnc(N)c1C#N)c1nc2ccc(F)cc2c(N(C)C)c1-c1ccccn1 (centres unmarked) [4-amino-6-(1-(4-(dimethylamino)-6-fluoro-3-(pyridin-2-yl)quinolin-2-yl)ethylamino)pyrimidine-5-carbonitrile]
1.35	COCCNc1c(-c2ccccc2)c(C(C)Nc2ncnc(N)c2C#N)nc2ccc(F)cc12 (centres unmarked) [4-Amino-6-(1-(6-fluoro-4-((2-methoxyethyl)amino)-3-phenyl-2-quinolinyl)-ethyl)amino)-5-pyrimidinecarbonitrile]
1.32	CC(Nc1ncnc(N)c1C#N)c1nc2ccc(F)cc2c(C(=O)N2CCN(C)CC2)c1-c1ccccc1 (centres unmarked) [4-Amino-6-((1-(6-fluoro-4-((4-methyl-1-piperazinyl)carbonyl)-3-phenyl-2-quinolinyl)ethyl)amino)-5-pyrimidinecarbonitrile]
1.19	CC(Nc1ncnc(N)c1C#N)c1nc2ccc(F)cc2c(N2CCOCC2)c1-c1ccccn1 (centres unmarked) [4-amino-6-(1-(6-fluoro-4-morpholino-3-(pyridin-2-yl)quinolin-2-yl)ethyl-amino)pyrimidine-5-carbonitrile]
1.18	COc1c(-c2ccccc2)c([C@H](C)Nc2ncnc(N)c2C#N)nc2ccc(F)cc12 [(S)-4-amino-6-(1-(6-fluoro-4-methoxy-3-phenylquinolin-2-yl)ethylamino)pyrimidine-5-carbonitrile]
1.12	CC(Nc1ncnc(N)c1C#N)c1nc2ccc(F)cc2c(S(C)(=O)=O)c1-c1cc(F)cc(F)c1 (centres unmarked) [4-Amino-6-(1-(3-(3,5-difluorophenyl)-6-fluoro-4-(methylsulfonyl)quinolin-2-yl)ethylamino)pyrimidine-5-carbonitrile]
0.657	C[C@H](Nc1ncnc(N)c1C#N)c1nc2ccc(F)cc2c(C(=O)N2CC[C@H](O)C2)c1-c1ccccc1 [4-amino-6-(((1S)-1-(6-fluoro-4-(((3S)-3-hydroxy-1-pyrrolidinyl)carbonyl)-3-phenyl-2-quinolinyl)ethyl)amino)-5-pyrimidinecarbonitrile]
0.61	COCCNc1c(-c2ccccc2)c([C@H](C)Nc2ncnc(N)c2C#N)nc2ccc(F)cc12 [4-Amino-6-(((1S)-1-(6-fluoro-4-((2-methoxyethyl)amino)-3-phenyl-2-quinolinyl)ethyl)amino)-5-pyrimidinecarbonitrile]
0.463	CC(Nc1ncnc(N)c1C#N)c1nc2ccc(F)cc2c(NCCS(C)(=O)=O)c1-c1ccccc1 (centres unmarked) [4-Amino-6-((1-(6-fluoro-4-((2-(methylsulfonyl)ethyl)amino)-3-phenyl-2-quinolinyl)ethyl)amino)-5-pyrimidinecarbonitrile]
0.396	CC(Nc1ncnc(N)c1C#N)c1nc2ccc(F)cc2c(NCCO)c1-c1ccccc1 (centres unmarked) [4-Amino-6-((1-(6-fluoro-4-((2-hydroxyethyl)amino)-3-phenyl-2-quinolinyl)ethyl)amino)-5-pyrimidinecarbonitrile]
0.226	C[C@H](Nc1ncnc(N)c1C#N)c1nc2ccc(F)cc2c(NCCS(C)(=O)=O)c1-c1ccccc1 [4-Amino-6-(((1S)-1-(6-fluoro-4-((2-(methylsulfonyl)ethyl)amino)-3-phenyl-2-quinolinyl)ethyl)amino)-5-pyrimidinecarbonitrile]

Same assay, conditions: listed as 4-amino-6-(-1-(6-fluoro-4-(((3R)-3-hydroxy-1-pyrrolidinyl)-carbonyl)-3-phenyl-2))

Ki [nM]	SMILES
5.07	CC(Nc1ncnc(N)c1C#N)c1nc2ccc(F)cc2c(C(=O)N2CC[C@@H](O)C2)c1-c1ccccc1 (stereo partly drawn) [4-Amino-6-((1-(6-fluoro-4-(((3R)-3-hydroxy-1-pyrrolidinyl)carbonyl)-3-phenyl-2-quinolinyl)ethyl)amino)-5-pyrimidinecarbonitrile]

— patent US9873704B2, “Heterocyclic compounds and their uses” (Amgen Inc., priority 2009, dated 2018)
